# In patent US10308685B2, “Inhibitory peptides of viral infection” (UNIVERSITY OF TENNESSEE RESEARCH FOUNDATION, priority 2014, dated 2019):
# Where a SMILES comes first, the peptide text is derived from it. Where no end group is shown, it is not given here.
# Experiments:
# [1] = biological target: HCMV expressing luciferase (Towne strain); assay type: cell-based, Human Cytomegalovirus; conditions: MRC-5 cells, peptide 30 min prior to virus
# Description: A recombinant luciferase-expressing Towne strain of HCMV was used for each experiment. To obtain the virus, the virus was cultured in vitro on HFF cells. The virus was titered using a standard plaque assay.
# Cells were cultured according to methods known to those of skill in the art. Briefly, human fetal lung fibroblasts (MRC-5, ATCC) were cultured in minimum essential media (MEM, HyClone) supplemented with fetal bovine serum (FBS, HyClone), and L-glutamine. Human foreskin fibroblasts (HFF, ATCC) were cultured in dulbecco's modified eagle medium (DMEM, GE HyClone) supplemented with FBS, L-glutamine and sodium pyruvate. Human aortic endothelial cells were cultured in EGM-2 Bullet Kit (Lonza) supplemented with FBS. Human retinal pigment epithelia cells (ARPE-19) were cultured in DMEM and Hams F12 medium (Lonza) and supplemented with FBS.
# Efficacy of viral reduction was measured using a luciferase assay with HCMV expressing luciferase virus. Cells were cultured in a 24-well plate until they reached ˜80% confluency. The cells were washed with phosphate buffered saline (PBS) then treated with peptide. The control cells were treated with PBS supplemented with FBS. After peptide incubation, virus was added (100 RLU for MRC-5, HFF and 1000 RLU for HAEC, ARPE-19) for 1 h. […] After the addition of LAR to the supernatant the luminescence was quantified using a plate reader (BioTek). […]
# trypsin = test: Proteolytic stability: trypsin incubation, then HCMV luciferase assay on MRC-5 cells; assay type: in vitro ADME; conditions: 200 μM peptide, 200 μg/ml trypsin, 37° C., 30 and 60 minutes
# Description: FIG. 8. Proteolytic stability of p5 and Dp5R. 200 μM of each peptide, CGGY-p5 (SEQ ID NO: 22) and GGGY-Dp5R (SEQ ID NO: 24, D form), was incubated with 200 μg/ml of trypsin for 30 minutes and 60 minutes then added to MRC-5 cells 30 minutes prior to the addition of virus. Data is representative of three separate experiments with three repeats ±SD.
# Without wishing to be bound by any particular theory, this increased binding could be due to proteolytic stability of the D-form. Trypsin was thus used to test the proteolytic stability of p5 and Dp5R. More particularly, each peptide was incubated at 37° C. for 30 minutes and 60 minutes with 200 μg/ml of trypsin then added to cells 30 minutes before the addition of virus.
# MCMV [2] = assay type: cell-based, Murine Cytomegalovirus; conditions: for inhibition of MCMV infection (plaque reduction): 500 μg/ml, mouse embryonic fibroblasts incubated with peptide 30 min prior to virus
# Description: Murine Cytomegalovirus (MCMV) RM4503 was cultured in vitro in MEF 10.1 cells. The virus stock was titered using plaque assay (described below) and stored at −80° C. Human Cytomegalovirus (HCMV) TB40/E was obtained from (46, 47) and cultures in vitro in HFF cells. The virus stock was titered using plaque assay and stored at −80° C. HSV-1 and HSV-2 were cultured in vitro in VERO cells. The virus stock was titered using plaque assay and stored at −80° C.
# Peptides were screened for their ability to reduce viral infection using a plaque reduction assay. Cells were cultured in 12-well (VERO) or 24-well culture plates (MEF 10.1 and HFF). When the cells reached ˜80% confluence the media was removed and the cells washed once with PBS before addition of peptide. As a control, cells were incubated with PBS alone. After a 30 min of incubation with peptide in PBS, the virus was added and incubated for another 90 min (HSV and HCMV) or 60 min (MCMV). Following virus incubation the peptide/virus mixture was removed and replaced with 0.75% carboxy-methyl cellulose (Sigma Aldrich, St. Louis, Mo.)+complete media (CMC) or 0.5% agarose (Lonza, Rockland, Me.) in complete media. The plates were incubated at 37° C. in 5% CO2 for 4 days when plaques began to develop, following which they were stained with Coomassie stain (AMRESCO, Solon, Ohio). Plaques were counted manually and data analyzed using Prism 5.0 (GraphPad Software, La Jolla, Calif.). Data were expressed as % plaques relative to the average number of plaques in the PBS-treated wells.
# In the initial screening assays all peptides were tested at a single concentration (500 μg/ml) using a plaque-reduction assay, in which mouse embryonic fibroblasts were incubated with the peptides for 30 min prior to the addition of virus.
# In the infectivity assays described above the peptide and virus were co-incubated with the cells. Therefore to ensure the peptide was not directly inactivating the virus, MCMV was incubated with 100 μM (˜20× the IC50) peptide at 37° C. for 1 h, diluted to an ineffective peptide concentration (1 μM) and fibroblast infection rates measured.
# To determine at which stage of the MCMV entry cycle the peptide interferes, four different peptide treatment protocols were tested, 1) 30 min. prior to infection (pre-adsorption) 2) simultaneously with virus (during adsorption) 3) after letting the virus adsorb to the cells at 4° C. for lhr (post adsorption) or 4) after allowing the virus to fuse with the cell membrane at 37° C. for lhr (post fusion) (FIG. 3(B)).
# MEF 10.1 cells = test: Visualization of bound biotinylated peptide on fixed MEF cells (fluorescence); assay type: binding, Mouse; conditions: 1.6 μg/mL, streptavidin fluorescence
# Description: Coverslips with fixed MEF cells prepared, washed in PBS and blocked with 1% BSA/PBS for 5 min. Following a PBS wash the nuclei were stained by using Hoechst (Life Technologies Molecular Probes, Grand Island, N.Y.) 1:100 in H2O— for 30 min at 37° C. Tissues were then blocked using a casein block solution (Scytek) for 5 min, AVIDIN/Biotin blocks (VECTOR, Burlingame, Calif.) for 20 min each at room temperature (RT) followed by a 5 min PBS wash. Biotinylated GGGY-p5+14 (SEQ ID NO: 25) or p5G (control) at 1.6 μg/mL in PBS was added and the tissues incubated overnight at 4° C. Following a PBS wash Alexa Fluor 594-conjugated streptavidin (Molecular Probes) was added at a 1:200 dilution in PBS for lhr at RT. Cells were then permeabilized by addition of 0.2% Triton X-100 (Sigma) in PBS for 10 min at RT and washed with a solution of 1% BSA in PBS for 30 min. The cells were then stained with Alexa Fluor 488-conjugated phalloidin (Molecular Probes) 1:100 dilution of stock in 1% BSA/PBS, for 45 min. at RT to visualize cytoskeleton. Slides were cover-slipped using a fluorescent mounting medium (Dako, Carpinteria, Calif.) to minimize photobleaching.
# [3] = mouse, in vivo; cited from earlier work
# MCMV [4] = test: Interference of peptide mediated reduction by heparin (MCMV plaque reduction); assay type: cell-based, Murine Cytomegalovirus
# Description: Peptide GGGY-p5+14 (SEQ ID NO: 25) (at 100 μM) was pre-incubated with heparin sodium salt (Acros Organics, NJ) at different concentrations for 1 h at 37° C. Following which the heparin/peptide mix was added to the cells and incubated for 30 min at 37° C. Following the incubation, the supernatant was aspirated and cells washed once with PBS to remove unbound/excess heparin or peptide. The cells were subsequently infected with ˜100 pfu/well of MCMV. To test whether heparin treatment of cells interferes with virus infection, MEF 10.1 cells in a 24 well dish were pre-incubated with different concentrations of heparin for 1 hour and washed as described above. Following the pre-incubation infection was initiated as mentioned above. Finally to test the effect of heparin treatment on the infectivity of virus, MCMV was incubated with different concentration of heparin for lhr before infecting cells. For all these treatments, the virus was removed lhr post infection and cells overlaid with CMC. Plates were incubated for 4 days before staining and counting the plaques. Plaque reduction assay was performed as mentioned above.
compound,measurement,setting,value
C[C@@H](NC(=O)[C@@H](CCC(N)=O)NC(=O)[C@@H](C)NC(=O)[C@@H](CCCNC(=N)N)NC(=O)[C@@H](CCC(N)=O)NC(=O)[C@@H](C)NC(=O)[C@@H](CCCNC(=N)N)NC(=O)[C@@H](CCC(N)=O)NC(=O)[C@@H](C)NC(=O)[C@@H](CCC(N)=O)NC(=O)[C@@H](CCCNC(=N)N)NC(=O)[C@@H](C)NC(=O)[C@@H](CCC(N)=O)NC(=O)[C@@H](CCCNC(=N)N)NC(=O)[C@@H](C)NC(=O)[C@@H](CCC(N)=O)NC(=O)[C@@H](C)NC(=O)[C@@H](CCCNC(=N)N)NC(=O)[C@@H](CCC(N)=O)NC(=O)[C@@H](C)NC(=O)[C@@H](CCCNC(=N)N)NC(=O)[C@@H](CO)NC(=O)[C@@H](Cc1ccc(O)cc1)NC(=O)CNC(=O)CNC(=O)CN)C(=O)N[C@H](CCCNC(=N)N)C(=O)N[C@H](CCC(N)=O)C(=O)N[C@H](C)C(=O)N[C@H](CCCNC(=N)N)C(=O)N[C@H](CCC(N)=O)C(=O)O [GGGY-Dp5R] (HELM PEPTIDE1{G.G.G.[dY].[dS].[dR].[dA].[dQ].[dR].[dA].[dQ].[dA].[dR].[dQ].[dA].[dR].[dQ].[dA].[dQ].[dR].[dA].[dQ].[dR].[dA].[dQ].[dA].[dR].[dQ].[dA].[dR].[dQ]}$$$$V2.0; N-terminus and C-terminus assumed),IC50,[1],~75 µM
same,ability to reduce infection after incubation with trypsin,trypsin,retained its ability to reduce infection
CGGYSEAQEAQAEQAEQAQEAQEAQAEQAEQ (Peptide CGGY-p5e Synthetic Construct),inhibition of MCMV infection (plaque reduction),MCMV [2],did not reduce MCMV infection
CGGYSGAQGAQAGQAGQAQGAQGAQAGQAGQ (also: biotinylated) [CGGY-p5G],binding to mouse fibroblasts in culture,MEF 10.1 cells,did not bind to cells
same,inhibition of MCMV infection (plaque reduction),MCMV [2],did not reduce MCMV infection
CGGYSKAQKAQAKQAKQAQKAQKAQAKQAKQ [CGGY-p5],IC50,[1],~60 µM
same,peptide binding to GAGs expressed in healthy organs or tissues,[3],no evidence of peptide binding to GAGs expressed in healthy organs or tissues
same,ability to reduce infection after incubation with trypsin,trypsin,only able to reduce viral infection in cells when it had not been treated with trypsin
CGGYSLAQLAQALQALQAQLAQLAQALQALQ (Peptide CGGY-p5L Synthetic Construct),inhibition of MCMV infection (plaque reduction),MCMV [2],did not reduce MCMV infection
GGGYSRAQRAQARQARQAQRAQRAQARQARQ (CGGY-p5R Peptide Synthetic Construct) [GGGY-p5R],blocks viral infection better compared to peptide p5 (CGGY-p5),"MCMV [2]; 500 μg/ml screen, FIG. 1(A)",4 fold
MPRRRRIRRRQK (Peptide G2 Synthetic Construct) [reference compound],reduction in infection (MCMV),MCMV [2]; 10 μM,ineffective
same,inhibition of MCMV infection,MCMV [2]; 100 μM,effectively inhibited
heparin sodium salt,MCMV infection after pre-incubation of the cells with heparin,MCMV [4]; cells pre-incubated with heparin 1 hour prior to virus addition,did not alter MCMV infection
same,reduction of virus infection after pre-incubation of virus with heparin,MCMV [4]; heparin concentrations >2 μg/mL,> 80%
